Laboratory results from patent US20100004169A1, “CCN3 peptide” (The Queen's University of Belfast, priority 2006, published 2010).
d = 2'-deoxy (DNA); r = 2'-OH (RNA)

B1: recombinant CCN3: recombinant CCN3 protein from Peprotech EC, London, UK (protein, UniProt P48745 32-357, looked up)
CCN family member 3: TQRCPPQCPGRCPATPPTCAPGVRAVLDGCSCCLVCARQRGESCSDLEPCDESSGLYCDRSADPSNQTGICTAVEGDNCVFDGVIYRSGEKFQPSCKFQCTCRDGQIGCVPRCQLDVLLPEPNCPAPRKVEVPGECCEKWICGPDEEDSLGGLTLAAYRPEATLGVEVSDSSVNCIEQTTEWTACSKSCGMGFSTRVTNRNRQCEMLKQTRLCMVRPCEQEPEQPTDKKGKKCLRTKKSLKAIHLQFKNCTSLHTYKPRFCGVCSDGRCCTPHNTKTIQAEFQCSPGQIVKKPVMVIGTCTCHTNCPKNNEAFLQELELKTTRGKM

Tests used:
CCN3 [1] = test: Western blot of cellular and secreted CCN3 in CD34+ cells from CML patients treated in vitro; assay type: cell-based, human; conditions: CD34+ cells from three CML patients at diagnosis, imatinib 1 μM, 72 hours in vitro
CCN3 [2] = test: Real-time PCR of CCN3 expression in CML cell lines (K562) after treatment; assay type: cell-based, human; conditions: for CCN3 expression (in words): CML cell lines; for mean Ct change for CCN3: n=3
Method: (§1) K562 cells were nucleofected following the manufacturer's instructions using the Cell Line Nucleofector Kit V, program T-16 (Amaxa GmbH, Cologne, Germany) and transfected with either the appropriate si-RNA, a scrambled si-RNA sequence or a non-silencing fluorescently labeled si-RNA (Amaxa GmbH) to monitor transfection efficiency. […] Leukemia.
(§2) RQ-PCR was performed with an ABI PRISM 7700 Sequence Detector which exploits TaqMan probe based chemistry (Applied Biosystems, Foster City, Calif.). The 5′ reporter used was 6-carboxyfluorescein (FAM) and the 3′ quencher was 6-carboxy-tetramethylrhodamine (TAMRA). Primers and probes for CCN3 were designed against GenBank published sequences in association with Primer Express (Applied Biosystems). […] Leukemia. […] Amplifications were performed following an initial 2-minute incubation at 50° C. to allow uracil-N-glycosylase (UNG) to destroy any contaminating […], followed by treatment at 95° C. for 10 minutes to inactivate the UNG enzyme and activate the AmpliTaq Gold DNA polymerase. This was followed by 40 to 45 cycles of denaturing at 95° C. for 15 seconds and annealing/extension at 60° C. for 1 minute. Data were collected and analysed with Sequence Detector v1.6.3 software (Applied Biosystems).

CCN3 [3] = test: Real-time PCR of CCN3 in bone marrow of CML patients at diagnosis and following treatment; assay type: in vivo, human; conditions: three CML patients, diagnosis vs following treatment
Source text: Leukemia. 2003; 17:2474-2486).

BCR-ABL = test: Real-time PCR of BCR-ABL expression in CML cell lines (K562) after treatment; assay type: cell-based, human
Method: as §1, §2

CCN3 [4] = test: Extracellular (secreted) CCN3 protein levels in K562 after siRNA to BCR-ABL; assay type: cell-based, human; conditions: K562 cells, n=3
Method: Protein was extracted from cells by suspending in RIPA buffer (1×PBS, 1% Nonidet NP-40, 0.1% SDS) containing a cocktail of protease Inhibitors (Complete Mini Cocktail, Roche Diagnostics Ltd, Lewes, UK) at a concentration of 10^7 cells/mL and lysing for 10 minutes on ice. Samples were sonicated for 10 seconds to ensure complete lysis, centrifuged at 10,000 g at 4° C. for 10 minutes and the supernatant removed for analysis. Total protein content was determined by the […] using the BCA protein assay kit (Pierce, Cramlington, UK). Protein (15 μg) was loaded onto a pre-cast Bis-Tris polyacrylamide gel (10%) using the Novex mini gel system (Invitrogen, Paisley, UK) and subsequently transferred to a PVDF membrane. CCN3 expression was detected using an antibody raised against the C terminus of CCN3. Equivalent protein loading was controlled by monitoring actin expression using a pan-actin antibody (Cell Signalling Technology Inc, MA). Immunoblots were visualised by enhanced chemiluminescence (Supersignal, Pierce). Optical densitometry was performed using the […] (Ultra-Violet Products Ltd., Cambridge, UK) and corrected for protein loading. CCN3 protein is glycosylated and binds to heparin. Medium in which ts BCR-ABL FDCP-Mix or control cells had been grown for 24 hours was harvested and enriched for CCN3 protein using heparin sepharose. […]

K562 cells = test: Flow cytometric cell cycle analysis (sub-G0) of K562 cells treated with exogenous recombinant CCN3; assay type: cell-based, human; conditions: 100 ng/ml CCN3, 48 hours
Method: K562 cells (1×10^6 cells/well) were treated with recombinant CCN3 (100 ng/ml, Peprotech EC, London, UK) in vitro for 48 hours. Cells were then fixed in 70% ethanol for flow cytometric analysis of cell cycle status as before.

[5] = K562 cells, siRNA 0.5 μg/10^8 cells, 24 hours

| Molecule | cellular and secreted CCN3 expression (in words) (CCN3 [1]) | CCN3 expression (in words) (CCN3 [2]) | mean Ct change for CCN3 (CCN3 [2]; K562 cells, 1 μM imatinib, 96 hours) | CCN3 expression following treatment (in words) (CCN3 [3]) | BCR-ABL expression (in words) (BCR-ABL; CML cell lines) | fold decrease in BCR-ABL (BCR-ABL; [5]) [fold] | mean Ct change for BCR-ABL (BCR-ABL; K562 cells, siRNA to BCR-ABL, n=3) | fold increase in CCN3 (CCN3 [2]; [5]) [fold] | mean Ct change for CCN3 (CCN3 [2]; K562 cells, siRNA to BCR-ABL) | decrease in secreted levels of CCN3 protein (CCN3 [4]) [%] | sub-G0 peak (K562 cells) [%] |
| --- | --- | --- | --- | --- | --- | --- | --- | --- | --- | --- | --- |
| Cc1ccc(NC(=O)c2ccc(CN3CCN(C)CC3)cc2)cc1Nc1nccc(-c2cccnc2)n1 [imatinib] | significant increase in both cellular and secreted CCN3 expression | increased CCN3 expression | 2.1±0.2 | reciprocal rise in CCN3 | – | – | – | – | – | – | – |
| si-RNA directed against BCR-ABL: 21-base si-RNA directed against the fusion sequence of BCR-ABL, SEQ ID NO 9 sense, SEQ ID NO 10 antisense (sense GCAGAGUUCAAAAGCCCUUTT; antisense AAGGGCUUUUGAACUCUGCTT; sugars from the 5' end r19 d2, backbone not given here) | – | increased CCN3 expression | – | – | significantly reduced BCR-ABL | 3.7 | 1.9±0.2 | 6.1 | 2.6±0.5 | 33±5 | – |
| B1 | – | – | – | – | – | – | – | – | – | – | 23.7±6.9 |
